Data taken from PubChem BioAssay (NCI).
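In this assay, cells in 96-well plates receive the compound at five concentrations for 48 hours. Endpoints are linearly interpolated between the surrounding concentrations. Here, GI50 denotes the concentration required for 50% inhibition of growth. The concentration for full growth arrest is given as TGI.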

Tests used:
Assay in all cases: growth of human tumour cells (NCI), 48 h
OVCAR-8 ovarian = system: OVCAR-8 ovarian
SK-MEL-28 melanoma = system: SK-MEL-28 melanoma
HT29 colon = system: HT29 colon
SNB-19 CNS = system: SNB-19 CNS
EKVX NSCLC = system: EKVX NSCLC
NCI-H23 lung = system: NCI-H23 lung
PC-3 prostate = system: PC-3 prostate
OVCAR-4 ovarian = system: OVCAR-4 ovarian
SF-539 CNS = system: SF-539 CNS
MDA-MB-435 = system: MDA-MB-435

Structure (SMILES)	GI50 (OVCAR-8 ovarian) [µM]	TGI (OVCAR-8 ovarian) [µM]	GI50 (SK-MEL-28 melanoma) [µM]	TGI (SK-MEL-28 melanoma) [µM]	GI50 (HT29 colon) [µM]	TGI (HT29 colon) [µM]	GI50 (SNB-19 CNS) [µM]	TGI (SNB-19 CNS) [µM]	GI50 (EKVX NSCLC) [µM]	TGI (EKVX NSCLC) [µM]	GI50 (NCI-H23 lung) [µM]	TGI (NCI-H23 lung) [µM]	GI50 (PC-3 prostate) [µM]	TGI (PC-3 prostate) [µM]	GI50 (OVCAR-4 ovarian) [µM]	TGI (OVCAR-4 ovarian) [µM]	GI50 (SF-539 CNS) [µM]	TGI (SF-539 CNS) [µM]	GI50 (MDA-MB-435) [µM]	TGI (MDA-MB-435) [µM]
Cc1cn2c(/C=C3/C(=O)Nc4c3ccc3ccccc43)c(C(F)(F)F)nc2s1	4.65	> 100	2.7	> 100	0.396	14.2	2.97	> 100	4.23	> 100	2.09	> 100	1.24	> 100	3.63	> 100	1.14	5.07	–	–
O=C(Oc1cccc(Cl)c1)c1ccccc1Nc1ccnc(C(F)(F)F)c1	3.52	18.1	–	–	–	–	–	–	22.2	46.4	2.41	8.26	7.39	23.6	–	–	2.79	7.24	3.04	10.7
C=CCn1c(=S)sc2c(C(=O)OCC)c3c(C)cc(C)cn3c2c1=O	–	> 100	–	> 100	–	> 100	–	> 100	–	> 100	–	> 100	–	–	–	–	–	> 100	–	–
Cc1c(C(=O)C/C(=N/NC(=O)c2ccccc2)C(=O)Nc2ccc(Cl)cc2)[n+](=O)c2ccccc2n1[O-]	–	> 100	–	> 100	–	> 100	–	> 100	–	–	–	92.6	–	–	–	> 100	–	> 100	–	–
COc1cc(-c2nc3ccccc3s2)ccc1OCCCCOc1cc2c(cc1OC)C(=O)N1CCC[C@H]1C=N2	1.99	22.7	1.99	4.51	0.724	7.14	1.57	4.11	2.24	5.51	1.47	4.72	0.785	2.55	1.5	7.61	1.61	3.22	–	–
C/C(=C\c1ccn(-c2ccccc2N)n1)[C@@H]1C[C@@H]2O[C@]2(C)CCC[C@H](C)[C@H](O)[C@@H](C)C(=O)C(C)(C)[C@@H](O)CC(=O)O1	0.0617	> 50	1.07	> 50	0.0206	> 50	0.184	> 50	0.684	> 50	0.0663	> 50	0.0371	> 50	0.392	> 50	0.0334	0.236	–	–
Cc1cc(N(CCC#N)S(=O)(=O)c2ccccc2)ccc1/C=C1\N=C(c2ccc(Cl)cc2)OC1=O	–	> 100	–	> 100	–	> 100	–	> 100	–	> 100	–	> 100	–	–	–	> 100	–	> 100	–	–
COc1cc(CNc2nc3c(N)cc(C(F)(F)F)cc3nc2-c2ccccc2)cc(OC)c1OC	–	> 100	–	> 100	–	> 100	> 100	> 100	–	25.6	–	> 100	–	–	–	> 100	> 100	> 100	–	–
C/C(CC(=O)NCCc1ccccc1)=N\NS(=O)(=O)c1ccc(C)cc1	–	> 100	–	> 100	–	> 100	–	–	–	> 100	–	> 100	–	–	–	–	–	> 100	–	–
CCOC(=O)NC(=O)c1cn(CCN2CCN(C(=O)CNC(=O)CNC(=O)Cn3cc(C(=O)NC(=O)OCC)c(=O)[nH]c3=O)CC2)c(=O)[nH]c1=O	–	> 100	–	> 100	–	> 100	–	> 100	–	–	–	> 100	–	–	–	–	–	> 100	–	–
O=C1C2C(C(=O)N1c1ccccc1)C1c3ccccc3C2C2C(=O)N(c3ccccc3)C(=O)C21 (stereo unspecified)	–	> 100	–	> 100	–	> 100	–	> 100	–	> 100	–	> 100	–	–	–	> 100	–	31.4	–	–
CC(C)C1CO[C@]2(C)CCC(=O)N12 (stereo partly specified)	–	> 100	–	> 100	–	> 100	–	> 100	–	> 100	–	> 100	–	–	–	> 100	–	> 100	–	–
COc1ccccc1N=Nc1c(-c2ccccc2)nn(C(=O)CC(=O)Nc2cccc(C)c2)c1-c1ccccc1	–	> 100	–	> 100	–	33.3	–	> 100	–	> 100	–	> 100	–	–	–	> 100	–	> 100	–	–
Cc1ccc(S(=O)(=O)N/N=C(\c2nc3ccc(Cl)cc3[nH]c2=O)C(O)c2ccco2)cc1 (stereo unspecified)	–	–	–	> 100	–	> 100	–	> 100	–	> 100	–	> 100	–	–	–	> 100	–	> 100	–	–
